The text below walks through data of ChEMBL document CHEMBL1157614, “5-Cyclic amine-3-arylsulfonylindazoles as novel 5-HT6 receptor antagonists” (J Med Chem, 2010).

Structures are written as SMILES. Values after ≈ are worked out from the molar mass of the structure shown. Active and inactive are the calls of the source.

Data set [1] has as its target T1, 5-hydroxytryptamine receptor 2B (Homo sapiens, UniProt P41595). As to the kind of experiment: Agonist activity at human 5HT2B receptor expressed in CHO cells assessed as intracellular cAMP formation by RIA. The format is functional, cell-based. (In general: cAMP levels reflect the balance of adenylyl cyclase and phosphodiesterase activity.)
The target of data set [2] is T2, 5-hydroxytryptamine receptor 6 (Homo sapiens, UniProt P50406). As to the kind of experiment: Antagonist activity at human cloned 5HT6 receptor expressed in human HeLa cells assessed as intracellular cAMP formation by RIA. It is filed as functional, cell-based.
T2 sequence (P50406 whole entry): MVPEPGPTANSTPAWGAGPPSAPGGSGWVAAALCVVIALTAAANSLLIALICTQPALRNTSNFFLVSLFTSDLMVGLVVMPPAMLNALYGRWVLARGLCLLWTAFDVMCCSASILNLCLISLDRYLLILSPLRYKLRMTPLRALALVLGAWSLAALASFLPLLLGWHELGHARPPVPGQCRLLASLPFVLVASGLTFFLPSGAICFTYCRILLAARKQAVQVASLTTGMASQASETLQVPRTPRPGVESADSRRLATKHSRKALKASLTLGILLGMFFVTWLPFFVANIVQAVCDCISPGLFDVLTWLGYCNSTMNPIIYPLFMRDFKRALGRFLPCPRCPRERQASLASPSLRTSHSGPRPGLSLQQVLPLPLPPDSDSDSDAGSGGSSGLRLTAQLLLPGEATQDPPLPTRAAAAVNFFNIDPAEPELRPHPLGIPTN
The target of data set [3] is T2, 5-hydroxytryptamine receptor 6. Kind of data set: Displacement of [3H]LSD from human 5HT6 receptor by scintillation counting.
Data set [4] has as its target T1, 5-hydroxytryptamine receptor 2B. As to the kind of experiment: Antagonist activity at human 5HT2B receptor expressed in CHO cells assessed as intracellular cAMP formation by RIA. It is filed as functional, cell-based.
For data set [5] the target is unchanged. As to the kind of experiment: Displacement of [3H]5HT from human 5HT2B receptor expressed in CHO cells by scintillation counting. The format is cell-based. A general note: Loss of bound radioactivity is the signal in a displacement assay; it reports binding, not function.
Data set [6] has as its system Rattus norvegicus. As to the kind of experiment: Cognitive enhancing effect in Long-Evans rat assessed as improvement of recognition memory at 3 mg/kg, ip administered 1 hr prior to learning trial measured after 48 hrs during testing trial by novel object recognition test. It is filed as functional, organism-based. Further details: dose 3 mg/kg.
Data set [7] addresses 5-hydroxytryptamine receptor 1D (Homo sapiens, UniProt P28221). Kind of data set: Binding affinity to 5HT1D receptor.
The test system of data set [8] is Rattus norvegicus. Kind of data set: Permeability across blood brain barrier in Long-Evans rat at 10 mg/kg, ip administered as single dose. The format is ADME, organism-based. Further details: dose 10 mg/kg, route intraperitoneal. Conditions: in vivo.
The target in data set [9] is T3, 5-hydroxytryptamine receptor 1A (Homo sapiens, UniProt P08908).
T3 sequence (P08908 whole entry): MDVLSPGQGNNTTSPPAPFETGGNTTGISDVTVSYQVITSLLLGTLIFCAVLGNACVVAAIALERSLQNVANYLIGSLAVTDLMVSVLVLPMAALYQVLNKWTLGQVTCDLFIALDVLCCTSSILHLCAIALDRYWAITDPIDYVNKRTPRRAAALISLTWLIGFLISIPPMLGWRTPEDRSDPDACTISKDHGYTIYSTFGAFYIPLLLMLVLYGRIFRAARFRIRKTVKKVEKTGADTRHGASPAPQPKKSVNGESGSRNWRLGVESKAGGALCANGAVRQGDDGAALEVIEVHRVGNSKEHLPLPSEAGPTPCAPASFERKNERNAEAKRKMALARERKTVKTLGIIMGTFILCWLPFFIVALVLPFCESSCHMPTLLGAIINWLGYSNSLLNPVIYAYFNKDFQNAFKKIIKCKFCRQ
Kind of data set: Binding affinity to 5HT1A receptor.

Data set [10] addresses T4, Alpha-2A adrenergic receptor (Homo sapiens, UniProt P08913).
T4 sequence (P08913 whole entry): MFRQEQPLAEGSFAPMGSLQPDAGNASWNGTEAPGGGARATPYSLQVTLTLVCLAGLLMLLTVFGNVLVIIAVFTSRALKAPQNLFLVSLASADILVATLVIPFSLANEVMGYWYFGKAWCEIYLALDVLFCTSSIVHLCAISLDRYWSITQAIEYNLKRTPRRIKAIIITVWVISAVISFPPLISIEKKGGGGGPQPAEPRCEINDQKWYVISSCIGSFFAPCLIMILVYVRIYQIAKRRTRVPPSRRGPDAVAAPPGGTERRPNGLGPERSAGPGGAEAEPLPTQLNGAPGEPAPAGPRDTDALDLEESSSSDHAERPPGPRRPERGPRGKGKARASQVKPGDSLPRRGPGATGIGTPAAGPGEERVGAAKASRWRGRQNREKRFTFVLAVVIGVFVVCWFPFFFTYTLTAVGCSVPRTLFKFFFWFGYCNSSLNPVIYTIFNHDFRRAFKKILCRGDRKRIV
Kind of data set: Binding affinity to alpha2A adrenergic receptor.

For a further data set, the target named is CYP2D6 (Homo sapiens, UniProt P10635). As to the kind of experiment: Inhibition of CYP2D6 at 3 uM. The format is ADME.
CYP2D6, sequence (P10635 whole entry, the tested form may be a part): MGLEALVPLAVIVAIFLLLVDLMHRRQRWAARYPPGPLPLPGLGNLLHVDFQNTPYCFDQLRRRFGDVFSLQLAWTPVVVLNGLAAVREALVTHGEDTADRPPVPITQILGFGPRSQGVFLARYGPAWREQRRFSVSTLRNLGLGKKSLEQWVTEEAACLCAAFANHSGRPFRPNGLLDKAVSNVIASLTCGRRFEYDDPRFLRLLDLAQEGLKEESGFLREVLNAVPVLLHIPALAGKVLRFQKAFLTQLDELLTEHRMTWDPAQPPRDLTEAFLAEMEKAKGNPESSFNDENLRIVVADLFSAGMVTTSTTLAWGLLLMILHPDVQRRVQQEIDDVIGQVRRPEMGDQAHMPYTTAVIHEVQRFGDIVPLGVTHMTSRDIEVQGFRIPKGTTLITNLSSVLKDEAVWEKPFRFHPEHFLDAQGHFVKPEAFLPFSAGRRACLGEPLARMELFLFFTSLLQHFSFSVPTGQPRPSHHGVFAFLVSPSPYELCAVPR
Data set [11] can be described thus: Permeability at pH 7.4 by PAMPA. Conditions: read-out: permeability. It is filed as ADME. A general note: The PAMPA barrier holds no transporters, so it reflects passive diffusion.
The target in data set [12] is 5-hydroxytryptamine receptor 1B (Homo sapiens, UniProt P28222). Kind of data set: Binding affinity to 5HT1B receptor.
5-hydroxytryptamine receptor 1B, sequence (P28222 whole entry): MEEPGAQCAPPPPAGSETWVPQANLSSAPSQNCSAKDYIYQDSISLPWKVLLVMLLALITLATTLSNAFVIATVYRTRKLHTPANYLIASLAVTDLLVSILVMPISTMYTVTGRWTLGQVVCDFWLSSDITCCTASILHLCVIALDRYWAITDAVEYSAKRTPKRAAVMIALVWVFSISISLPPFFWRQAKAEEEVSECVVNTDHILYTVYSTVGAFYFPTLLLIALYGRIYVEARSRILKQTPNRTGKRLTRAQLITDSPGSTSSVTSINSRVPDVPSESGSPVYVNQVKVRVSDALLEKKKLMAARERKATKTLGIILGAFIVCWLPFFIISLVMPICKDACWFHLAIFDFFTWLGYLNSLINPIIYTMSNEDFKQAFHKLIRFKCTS
For another data set, the target named is hERG (KCNH2) (Homo sapiens, UniProt Q12809). Kind of data set: Inhibition of human ERG at 10 uM.
hERG (KCNH2), sequence (Q12809 whole entry): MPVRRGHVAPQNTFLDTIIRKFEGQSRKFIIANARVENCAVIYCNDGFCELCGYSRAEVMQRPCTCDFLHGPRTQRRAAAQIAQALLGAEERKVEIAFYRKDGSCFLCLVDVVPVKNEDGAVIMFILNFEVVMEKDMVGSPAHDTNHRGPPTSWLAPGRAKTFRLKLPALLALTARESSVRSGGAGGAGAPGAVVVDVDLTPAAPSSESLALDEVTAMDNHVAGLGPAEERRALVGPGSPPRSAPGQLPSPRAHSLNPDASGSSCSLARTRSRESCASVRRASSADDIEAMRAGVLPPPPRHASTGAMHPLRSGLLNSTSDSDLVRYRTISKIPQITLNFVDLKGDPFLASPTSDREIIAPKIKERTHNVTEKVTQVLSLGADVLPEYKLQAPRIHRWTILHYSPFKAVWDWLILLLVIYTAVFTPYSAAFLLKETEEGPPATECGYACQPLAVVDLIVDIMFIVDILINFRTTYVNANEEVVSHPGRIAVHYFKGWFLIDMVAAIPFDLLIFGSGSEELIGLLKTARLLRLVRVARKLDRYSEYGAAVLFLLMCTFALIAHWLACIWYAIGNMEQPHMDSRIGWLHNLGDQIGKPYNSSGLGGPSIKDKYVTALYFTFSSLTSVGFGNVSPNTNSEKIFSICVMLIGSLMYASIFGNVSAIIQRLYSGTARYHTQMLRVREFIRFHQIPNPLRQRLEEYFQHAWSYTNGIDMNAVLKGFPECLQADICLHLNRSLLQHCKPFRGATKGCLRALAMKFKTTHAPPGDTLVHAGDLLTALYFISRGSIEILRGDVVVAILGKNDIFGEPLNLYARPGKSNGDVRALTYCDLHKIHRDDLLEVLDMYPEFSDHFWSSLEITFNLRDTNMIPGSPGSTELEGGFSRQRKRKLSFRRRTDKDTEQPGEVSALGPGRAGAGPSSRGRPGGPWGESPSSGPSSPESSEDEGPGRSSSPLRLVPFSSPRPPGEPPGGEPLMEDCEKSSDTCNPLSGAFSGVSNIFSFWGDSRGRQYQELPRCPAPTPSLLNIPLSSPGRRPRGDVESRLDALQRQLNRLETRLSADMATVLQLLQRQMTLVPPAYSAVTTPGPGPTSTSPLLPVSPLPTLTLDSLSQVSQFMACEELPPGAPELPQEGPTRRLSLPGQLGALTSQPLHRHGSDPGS
The target in a further data set is CYP3A4 (Homo sapiens, UniProt P08684). As to the kind of experiment: Inhibition of CYP3A4 at 3 uM. The format is ADME.
CYP3A4, sequence (P08684 whole entry): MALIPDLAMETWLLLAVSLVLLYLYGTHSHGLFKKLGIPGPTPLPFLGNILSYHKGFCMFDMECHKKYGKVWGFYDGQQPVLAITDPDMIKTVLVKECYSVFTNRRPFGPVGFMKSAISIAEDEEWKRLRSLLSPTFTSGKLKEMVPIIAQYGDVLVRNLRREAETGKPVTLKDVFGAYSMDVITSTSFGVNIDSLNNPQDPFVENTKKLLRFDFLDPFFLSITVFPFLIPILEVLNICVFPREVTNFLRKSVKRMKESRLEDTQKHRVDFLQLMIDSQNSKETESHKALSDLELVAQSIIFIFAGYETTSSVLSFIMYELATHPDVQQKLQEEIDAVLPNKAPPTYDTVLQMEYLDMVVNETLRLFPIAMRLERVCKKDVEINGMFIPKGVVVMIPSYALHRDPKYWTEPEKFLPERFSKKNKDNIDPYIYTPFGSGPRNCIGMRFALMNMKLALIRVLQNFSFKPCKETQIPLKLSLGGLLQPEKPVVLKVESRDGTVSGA
In a further data set the target is D(2) dopamine receptor (Homo sapiens, UniProt P14416). As to the kind of experiment: Binding affinity to dopamine D2 receptor.
D(2) dopamine receptor, sequence (P14416 whole entry): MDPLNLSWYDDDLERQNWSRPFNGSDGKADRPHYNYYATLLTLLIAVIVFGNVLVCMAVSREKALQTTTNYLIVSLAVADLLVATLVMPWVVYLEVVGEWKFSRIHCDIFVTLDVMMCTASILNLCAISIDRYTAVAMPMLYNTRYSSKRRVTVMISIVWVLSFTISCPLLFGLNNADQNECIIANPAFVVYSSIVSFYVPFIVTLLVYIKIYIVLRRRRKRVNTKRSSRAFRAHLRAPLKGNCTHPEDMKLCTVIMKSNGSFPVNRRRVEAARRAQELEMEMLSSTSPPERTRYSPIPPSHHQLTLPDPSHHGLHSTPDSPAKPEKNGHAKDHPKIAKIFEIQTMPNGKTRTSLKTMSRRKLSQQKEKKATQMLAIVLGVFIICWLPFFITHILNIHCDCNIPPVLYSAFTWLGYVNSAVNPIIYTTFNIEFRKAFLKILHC
Data set [13] in a line: Solubility at pH 7.4. Conditions: buffer. It is filed as physicochemical.
Data set [14] is described as follows: Half life in rat microsomes. The format is ADME, Microsome.
The next data set has as its target CYP2C9 (Homo sapiens, UniProt P11712). Kind of data set: Inhibition of CYP2C9 at 3 uM. It is filed as ADME.

T1 sequence (P41595 whole entry): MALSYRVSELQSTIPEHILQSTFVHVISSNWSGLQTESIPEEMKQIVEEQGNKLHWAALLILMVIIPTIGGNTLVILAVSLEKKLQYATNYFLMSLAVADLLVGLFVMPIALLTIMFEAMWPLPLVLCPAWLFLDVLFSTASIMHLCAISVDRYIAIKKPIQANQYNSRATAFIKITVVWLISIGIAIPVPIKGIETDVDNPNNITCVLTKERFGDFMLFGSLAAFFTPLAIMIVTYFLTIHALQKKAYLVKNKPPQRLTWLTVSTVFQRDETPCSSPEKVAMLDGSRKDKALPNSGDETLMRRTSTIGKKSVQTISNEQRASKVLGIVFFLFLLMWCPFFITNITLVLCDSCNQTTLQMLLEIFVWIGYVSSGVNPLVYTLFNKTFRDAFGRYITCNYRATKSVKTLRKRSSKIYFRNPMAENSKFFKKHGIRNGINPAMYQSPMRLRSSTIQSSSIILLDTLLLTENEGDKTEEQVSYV
CYP2C9, sequence (P11712 whole entry): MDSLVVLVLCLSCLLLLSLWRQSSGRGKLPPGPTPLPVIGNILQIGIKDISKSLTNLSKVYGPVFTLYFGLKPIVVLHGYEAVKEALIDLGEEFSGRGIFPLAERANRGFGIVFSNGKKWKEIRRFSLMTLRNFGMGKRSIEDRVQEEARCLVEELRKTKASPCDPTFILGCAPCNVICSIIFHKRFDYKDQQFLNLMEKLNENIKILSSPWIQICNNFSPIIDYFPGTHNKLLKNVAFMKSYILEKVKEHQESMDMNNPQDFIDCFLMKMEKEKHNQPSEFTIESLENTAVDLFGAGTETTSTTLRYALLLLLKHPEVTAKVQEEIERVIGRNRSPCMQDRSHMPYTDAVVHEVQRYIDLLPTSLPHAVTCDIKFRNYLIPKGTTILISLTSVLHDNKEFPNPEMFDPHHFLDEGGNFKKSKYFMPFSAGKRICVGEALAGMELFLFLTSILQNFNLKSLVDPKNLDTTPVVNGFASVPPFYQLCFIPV
5-hydroxytryptamine receptor 1D, sequence (P28221 whole entry): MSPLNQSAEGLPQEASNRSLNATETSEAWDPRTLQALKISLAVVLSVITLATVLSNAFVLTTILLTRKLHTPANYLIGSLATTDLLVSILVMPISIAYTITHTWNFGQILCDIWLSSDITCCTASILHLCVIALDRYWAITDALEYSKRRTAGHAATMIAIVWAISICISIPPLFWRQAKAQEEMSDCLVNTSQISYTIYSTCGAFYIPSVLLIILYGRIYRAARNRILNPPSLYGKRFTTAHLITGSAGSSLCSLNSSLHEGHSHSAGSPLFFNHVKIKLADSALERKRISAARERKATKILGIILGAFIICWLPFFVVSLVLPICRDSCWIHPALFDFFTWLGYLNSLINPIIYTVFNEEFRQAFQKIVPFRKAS

On to `CC(C)c1ccc(S(=O)(=O)c2n[nH]c3ccc(N4CCC(N)CC4)cc23)cc1`, for which, in data set [1], the result was inactive. Besides, the IC50 in data set [2] amounted to 0.0517 µM. Moreover, the inhibitory constant (Ki) in data set [3] is 0.0131 µM; in [5] it was over 10 µM. Further, in [4], the outcome was Active.

With `CN(C)[C@H]1CCN(c2ccc3[nH]nc(S(=O)(=O)c4cccc5ccccc45)c3c2)C1`, the result in [1] was inactive. Further, the half-maximal inhibitory concentration (IC50) in [2] came out at 0.0175 µM. Further, the Ki came out at 0.0244 µM in data set [3] and 0.583 µM in data set [5]. Further, the outcome in data set [4] was Active.

As to `CC(C)n1nc2ccc(N3CC[C@@H](N)C3)cc2c1S(=O)(=O)c1cccc2ccccc12`, the result in [1] was inactive. In data set [2], the half-maximal inhibitory concentration (IC50) stood at 0.38 µM. In addition, the Ki was 0.0487 µM in data set [3] and over 3.3 µM in data set [5]. Further, the result in [4] was Active.

Regarding `Cn1nc(S(=O)(=O)c2cccc3ccccc23)c2cc(N3CC[C@@H](N)C3)ccc21`, the result in data set [1] was inactive. The half-maximal inhibitory concentration (IC50) in data set [2] amounted to 0.316 µM. Further, in [4], the result was Active. This molecule also gave an inhibition constant Ki in [5] of 0.185 µM.

Take `NC1CCN(c2ccc3[nH]nc(S(=O)(=O)c4ccc5ccccc5c4)c3c2)CC1`: in data set [1], the outcome was inactive. Moreover, the concentration for half-maximal inhibition (IC50) in data set [2] is 0.0889 µM. Besides, the Ki in [3] turned out to be 0.0182 µM; in [5] it was 1.36 µM. In data set [4], the outcome was Active.

In the case of `CC(C)n1nc(S(=O)(=O)c2cccc3ccccc23)c2cc(N3CC[C@@H](N)C3)ccc21`, the outcome (with Rattus norvegicus [6]; in data set [4]) was Active. Further, the outcome in data set [1] was inactive. Also, in [2], the IC50 worked out at 0.157 µM. The molecule also yielded a Ki in [5] of 0.191 µM.

In the case of `NC1CCN(c2ccc3[nH]nc(S(=O)(=O)c4cccc(Cl)c4)c3c2)CC1`, the outcome in [1] was inactive. The IC50 in data set [2] came to 0.0337 µM. In [4], the outcome was Active. The molecule also showed a Ki in data set [5] of 0.442 µM.

`NC1CCN(c2ccc3[nH]nc(S(=O)(=O)c4cccc5c(Cl)cccc45)c3c2)CC1`: the result in [1] was inactive. Moreover, in data set [2], the IC50 was found to be 0.0701 µM. The inhibitory constant (Ki) in data set [3] is 0.00452 µM; in data set [5], 0.078 µM. Moreover, in data set [4], the outcome was Active.

With `N[C@@H]1CCN(c2ccc3[nH]nc(S(=O)(=O)c4cccc5ccccc45)c3c2)C1`, the Ki was 2.27 µM in data set [7]; 4.73 µM in [9]; over 10 µM in [10]; 6.04 µM in data set [12]; 2.91 µM on D(2) dopamine receptor; 0.274 µM in data set [5]. In data set [1], the result was inactive. Also, in the data set on Rattus norvegicus [8], the pBBB worked out at 11 ×10⁻⁶ cm/s. The values for the inhibition at 3 µM against CYP2D6, at CYP3A4 and on CYP2C9 were 7%, 88% and 73%, respectively. For the same molecule, in [11], the Papp was 0.19 ×10⁻⁶ cm/s. Besides, on hERG (KCNH2), the inhibition at 10 µM worked out at 14%. Also, the solubility in [13] is 63 µg/mL (≈ 161 µM). The molecule also showed a half-life in data set [14] of 20 min. Also, the result in data set [4] was Active.

With `Cc1ccc(S(=O)(=O)c2n[nH]c3ccc(N4CCC(N)CC4)cc23)c2ccccc12`, the outcome in data set [1] was inactive. Further, the IC50 in [2] was determined as 0.0267 µM. The Ki was 0.00362 µM in data set [3] and 0.493 µM in data set [5]. In addition, the result in [4] was Active.

Consider `NC1CCN(c2ccc3[nH]nc(S(=O)(=O)c4cccc5ccccc45)c3c2)CC1`, for which the result in [1] was inactive. The result in data set [4] was Active. In data set [5], this molecule registered a Ki of 0.1 µM.

For the molecule `Cn1nc2ccc(N3CC[C@@H](N)C3)cc2c1S(=O)(=O)c1cccc2ccccc12`, in data set [1], the result was inactive. The 50% inhibitory concentration (IC50) in data set [2] stood at 0.444 µM. Also, the Ki in data set [3] was 0.0543 µM; in data set [5], 0.455 µM. In addition, the outcome in [4] was Active.

On to `NC1CN(c2ccc3[nH]nc(S(=O)(=O)c4cccc5ccccc45)c3c2)C1`, for which the outcome in data set [1] was inactive. The IC50 in data set [2] was found to be 0.0165 µM. Moreover, the inhibitory constant (Ki) in [3] amounted to 0.00355 µM; in data set [5], 0.0979 µM. Moreover, the outcome in data set [4] was Active.

For the molecule `CN(C)[C@@H]1CCN(c2ccc3[nH]nc(S(=O)(=O)c4cccc5ccccc45)c3c2)C1`, in data set [1], the outcome was inactive. In data set [2], the half-maximal inhibitory concentration (IC50) was determined as 0.0396 µM. In addition, the Ki in [3] is 0.00051 µM; in data set [5] it was 0.423 µM. Also, the result in data set [4] was Active.

On to `CC(C)Cn1nc2ccc(N3CC[C@@H](N)C3)cc2c1S(=O)(=O)c1cccc2ccccc12`, for which the result in data set [1] was inactive. The IC50 in data set [2] came to 0.433 µM. For the same molecule, the Ki worked out at 0.0758 µM in data set [3] and 0.26 µM in [5]. The result in data set [4] was Active.

With `N[C@H]1CCN(c2ccc3[nH]nc(S(=O)(=O)c4cccc5ccccc45)c3c2)C1`, the outcome in data set [1] was inactive. In data set [4], the result was Active. Moreover, the affinity in data set [5], expressed as Ki, was 0.021 µM.

On to `CC(C)Cn1nc(S(=O)(=O)c2cccc3ccccc23)c2cc(N3CC[C@@H](N)C3)ccc21`, for which the result in data set [1] was inactive. Also, the 50% inhibitory concentration (IC50) in data set [2] is 0.203 µM. Besides, in data set [4], the outcome was Active. In addition, the Ki in [5] was over 3.3 µM.

A word on the IC50: it is the concentration that gives 50% inhibition. The Ki is the dissociation constant of the complex between target and ligand, obtained from inhibition or displacement. The low end stands for a stronger hold on the target, the high end for a looser hold on the target. Usually inhibition stands for how much of the control response was suppressed. Low readings indicate little suppression, high ones strong suppression. In general, solubility refers to the dissolved amount per volume that the medium holds. One may read the half-life as the time needed for the level to fall by half in the phase considered.
